Results on 88 molecules are retold here after a melting point compilation (Tetko et al.; mined from patent text by program, amines drawn as free bases though some values may be those of a salt).

Residues, ends and D or L forms follow the SMILES beside them. *: point of attachment. Boc = CC(C)(C)OC(=O)*

Consider `Cc1cc(CSCCC(=C(N)NCC(O)c2ccccc2)[N+](=O)[O-])sc1CN(C)C` (stereo not drawn), for which the melting point – broadly, the temperature, or range, at which the solid turns liquid – was 114 to 115 °C.

As for `CN(C)c1ccc([N+](=O)[O-])c(CN)c1`, the melting point lay in the range of 97 to 98 °C.

On to `Cc1sc(-c2ccccc2)nc1COc1ccc(C=O)cc1`, for which the melting point lay in the range of 118 to 119 °C.

Molecule `CC(C)(C)c1ccc([PH](=O)c2ccc(C(C)(C)C)cc2)cc1` displayed a melting point of 142 °C.

Molecule `O=C1C[C@@H]2[C@@H](CC[C@@H](O)COc3cccc(Cl)c3)[C@H](O)C[C@@H]2O1` gave a melting point of 102 to 104 °C.

For `O=c1[nH]c2c(n1-c1ccccc1)CCCC2`, the melting point amounted to 220 °C.

In the case of `CCCCNC(=O)OC1c2cc(C(F)(F)F)ccc2C(=O)N1c1ccc2ccc(Cl)nc2n1` (stereo not drawn), the melting point was 120 °C.

Regarding `O=C(Nc1ccc(C(F)(F)F)cc1)O[C@H]1COC(c2ccccc2)=N[C@@H]1c1ccccc1` (racemic), the melting point came out at 140 °C.

`COC(=O)[C@@H]1C[C@H](C(=O)O)Nc2cc(Cl)c(Cl)c(Cl)c21` (relative stereo) showed a melting point of 210 °C.

With `Cc1c(C)c2c(c(C)c1N)OC(C)(C)C2Cc1ccccc1` (stereo not drawn), the melting point lay in the range of 75 to 76 °C.

As for `CC(C)(C)OC(=O)N1CCC(c2ccc3nc(-c4ccc(S(C)(=O)=O)cc4F)oc3c2)CC1`, the melting point was in the range of 166 to 169 °C.

`CN(Cc1ccc(OC(F)(F)F)cc1)C(=O)OC[C@@]1(C)Cn2cc([N+](=O)[O-])nc2O1` yielded a melting point of 123 to 124 °C.

`CCCC(=O)Nc1n[nH]c2cc(-c3cccnc3)ccc12` showed a melting point of 205 °C.

`COC1CCN2C(=O)c3cccc(N)c3C2C1` (stereo not drawn) registered a melting point of 60 to 62 °C.

Regarding `CC(C)CC(NS(=O)(=O)c1ccc(Cl)cc1)C(=O)Nc1ccc(CC(=O)O)cc1` (racemic), the melting point lay in the range of 208 to 209 °C.

Molecule `CCc1cccc(C(C)C)c1N1C(=O)CN(CC)C1=S` had a melting point of 77 to 79 °C.

Take `Oc1nc(-c2ccccc2)cs1`: the melting point lay in the range of 194 to 197 °C.

In turn, `CCn1cc(C(=O)O)c(=O)c2cc(F)c(N3CCNC(c4cc5ccccc5o4)C3)cc21` (stereo not drawn) had a melting point of 226 to 228 °C.

Molecule `CC(C)C(C(N)=O)N(C)C(=O)OC(C)(C)C` (stereo not drawn) yielded a melting point of 181 to 183 °C.

Regarding `COc1ccc(N(C(=O)CN2C(=O)C(Cc3n[nH]c4ccccc34)(OC)C(=O)N(c3cccnc3)c3ccccc32)C(C)C)cc1` (stereo not drawn), the melting point is 207 to 209 °C.

In turn, `O=c1c2ccc([N+](=O)[O-])cc2nc(CSc2ncnc3[nH]cnc23)n1-c1ccccc1Cl` had a melting point of 218 °C.

For the molecule `COC(=O)CNC(=O)CNC(=O)CNC(=O)OC(C)(C)C` (Boc-Gly-Gly-Gly-OMe), the melting point lay in the range of 122 to 128 °C.

In the case of `COc1cc2c(cc1O)CN(C(=O)OC(C)(C)C)CC2`, the melting point lay within 80 to 83 °C.

`CC(=O)c1ccc(NC(=O)NCCCN(CCCNC(=O)Nc2ccc(C(C)=O)cc2)CCCNC(=O)Nc2ccc(C(C)=O)cc2)cc1` yielded a melting point of 184 to 185 °C.

The molecule `CCOC(=O)c1cn(CC)c2nc(OC)c(N)cc2c1=O` yielded a melting point of 250 to 252 °C.

The molecule `COC(=O)c1cc2cc(OC)c(OCCCl)cc2nc1N` yielded a melting point of 145 to 157 °C.

Molecule `CCN(CC)CCCOc1cccc(-c2oc3ccccc3c2C(=O)c2cc(C)cc(C)c2)c1` had a melting point of 114 to 121 °C.

On to `COc1nc(C)c(C(C)O)cc1NC(=O)N1CCN(c2cc(C)cc(C)c2)CC1` (stereo not drawn), for which the melting point was in the range of 153 to 154 °C.

On to `CC(C)CSc1ccnc(OS(C)(=O)=O)c1`, for which the melting point lay within 34 to 35 °C.

Take `CCOC(=O)Cc1csc2nc(C(=O)OC)cn12`: the melting point was 152 to 154 °C.

For `O=C1c2[nH]c3cc(Cl)ccc3c2Oc2ccccc2N1Cc1ccccc1`, the melting point lay within 259 to 261 °C.

As to `O=C(CN1CCCCC1)Nc1ccc([N+](=O)[O-])cc1`, the melting point was in the range of 144 to 145 °C.

For `CCCCCCC(=O)c1ccc2occc2c1`, the melting point is 64 to 67 °C.

Molecule `CCc1cc(N(Cc2ccc(-c3ccccc3-c3nnn(C(c4ccccc4)(c4ccccc4)c4ccccc4)n3)cc2)C(C)=O)cc(CC)n1` displayed a melting point of 98 to 102 °C.

Consider `C=C(C)COc1ccc2c(C)cc(=O)oc2c1C(=O)C=Cc1ccccc1`, for which the melting point fell in the range of 158 to 160 °C.

`CS(=O)(=O)c1ccccc1C1CCCC2(C1)C(=O)Nc1ccccc12` (stereo not drawn) had a melting point of 190 to 191 °C.

Molecule `CCC(OC(=O)CS(C)(=O)=O)c1ccc(Cl)c2nc3n(c12)CCCN3c1ccc(Cl)cc1Cl` (stereo not drawn) returned a melting point of 187 to 189 °C.

`O=C(CBr)C1=NO[C@@H](c2ccccc2)C1` registered a melting point of 31 to 33 °C.

`CS(=O)(=O)C(=C1CN(C(c2ccccc2)c2ccccc2)C1)c1cccc(Cl)c1`: the melting point came to 205 °C.

`CC(C)c1ccc(NC(=O)NCCc2ccccn2)cc1` came in with a melting point of 72 to 73 °C.

Consider `Cc1nc2c(c3c1[nH]c1ccccc13)C(=O)CC(C(C)C)C2` (stereo not drawn), for which the melting point was in the range of 248 to 249 °C.

On to `NC(=O)c1ncn2c(-c3ccc(Cl)c(Cl)c3)ccnc12`, for which the melting point lay in the range of 302 to 304 °C.

The molecule `CC=CCn1c(C)c(CC)c2cnnc(OCc3ccc(F)cc3)c21` showed a melting point of 78 to 83 °C.

On to `CC(=O)Oc1ccc(C(=O)NOCc2ccccc2)cc1`, for which the melting point fell in the range of 120 to 122 °C.

Consider `O=C(c1ccc(F)cc1)c1cc2ccsc2s1`, for which the melting point was 113 °C.

The molecule `Nc1cc(Cl)ncc1F` gave a melting point of 110 to 111 °C.

Consider `Oc1ccc2nc(SCCC=C(F)F)oc2c1`, for which the melting point lay within 73.6 to 75.4 °C.

`CN1CCC(C(=O)OC2c3ccccc3C(=O)N2c2ccc3ccc(Cl)nc3n2)CC1` (stereo not drawn) displayed a melting point of 136 °C.

In the case of `O=C(c1ccc(OC2CCCCC2N2CCCC2)c(F)c1)c1c(-c2ccc(OCCN3CCCC3)cc2)sc2cc(OCc3ccccc3)ccc12` (stereo not drawn), the melting point lay within 47 to 51 °C.

On to `CCCOc1ccc(-c2ccc(-c3ccccc3Cl)n2Cc2ccc(OCCO)c(N)n2)cc1`, for which the melting point was 89 to 92 °C.

Molecule `CCC(C)(C)C(=O)c1ccc(C(=O)O)cc1` displayed a melting point of 128 to 129 °C.

`CCOC(=O)c1nc(O)sc1C(C)=O` displayed a melting point of 105 to 108 °C.

In turn, `CCC(=O)C(=Cc1ccccc1)c1cc(C)cs1` yielded a melting point of 98 to 99 °C.

Regarding `COc1ccc2[nH]c(S(=O)Cc3ncc(C)c(N4CCCC4)c3Cl)nc2c1` (stereo not drawn), the melting point is 145 to 146 °C.

As to `CCOC(=O)CCc1cn(-c2ccc(C(F)(F)F)cc2)nc1OCC`, the melting point is 47 to 48 °C.

For `Cn1cc2c3c(c(Cl)cc2n1)CCC3=CC#N`, the melting point fell in the range of 224 to 226 °C.

For the molecule `CC(=O)c1ccc(Cc2c(Cl)cc(N)cc2Cl)cc1`, the melting point was in the range of 97 to 98 °C.

`OCCCc1ncnn1C(c1ccccc1)(c1ccccc1)c1ccccc1` gave a melting point of 150 to 152 °C.

On to `OC(c1ncc[nH]1)(c1ccc(Cl)cc1Cl)c1ccc(Cl)cc1Cl`, for which the melting point is 193 °C.

Consider `CCOC(=O)c1c(C)nc2c(nc(C)n2CC)c1OCC`, for which the melting point was in the range of 62 to 65 °C.

`CCCCCCCCCCCCCCCCCC(=O)NN(C(=O)CCCCCCCCCCCCCCCCC)C(=O)CCC(=O)NN` gave a melting point of 248 to 252 °C.

Take `N=C(N)c1ccc(C(=O)N[C@@H](Cc2ccc(O)cc2)C(=O)N2CCC(OCC(=O)O)CC2)cc1`: the melting point lay within 88 to 90 °C.

Turning to `C[Si](C)(C)OC1(C(=O)c2ccccc2)CC2CCC(C1)N2CCCC(c1ccc(F)cc1)c1ccc(F)cc1` (stereo not drawn), the melting point is 111 to 113 °C.

The molecule `CCCc1cc2c(c3c1[nH]c1ccc(OC)cc13)C(=O)N(CCN(C)C)C2=O` gave a melting point of 207 to 208 °C.

As to `Cc1ccc(-c2nc(C(=O)Nc3nnn[nH]3)c(C)s2)s1`, the melting point is 278 to 280 °C.

Molecule `O=C(Nc1c([N+](=O)[O-])cnn1-c1c(Cl)cc(S(=O)(=O)C(F)(F)F)cc1Cl)C(Cl)Cl` yielded a melting point of 138 to 142 °C.

Take `Cc1cc(OCC(F)(F)F)c(NC(=O)CN2CCN(CCO)CC2)c(OCC(F)(F)F)n1`: the melting point was in the range of 117 to 118 °C.

For the molecule `NS(=O)(=O)c1ccc(CCN2CC=C(c3c[nH]c(-c4ccc(F)cc4)c3-c3ccncc3)CC2)cc1`, the melting point lay in the range of 220 to 221 °C.

For `COc1ccc(C(=O)Nc2ccccc2)cc1NS(=O)(=O)c1ccc2ccccc2c1`, the melting point fell in the range of 223 to 225 °C.

Molecule `c1cnn(-c2cc(-n3cccn3)ncn2)c1` returned a melting point of 133 to 134 °C.

In turn, `OCCOc1ccc2ncccc2c1` yielded a melting point of 68 to 70 °C.

Molecule `N#Cc1c(Cl)nc2cscc2c1Cl` had a melting point of 228 °C.

`CC(=O)OC(C)c1cccc2cc(C(C)=O)oc12` (stereo not drawn): the melting point is 82 to 83 °C.

On to `ClCc1nc2nc(Cl)c(Cl)nc2s1`, for which the melting point lay in the range of 126 to 128 °C.

`Cc1ccc(C)n1CCNC(=O)COc1ccc(Cl)cc1` had a melting point of 75 to 77 °C.

Consider `CCOc1c(NC(C)(C)CC)c(=O)c1=O`, for which the melting point lay within 78 to 80 °C.

On to `CCCCc1cccc(=O)n1Cc1ccc(-c2ccccc2-c2nnn[nH]2)cc1`, for which the melting point amounted to 105 °C.

`CS(=O)(=O)OC1CCc2ccccc2C1` (stereo not drawn): the melting point was 60 to 62 °C.

Molecule `COc1c(C(C)C)cc(S(N)(=O)=O)c(C)c1C(=O)NCC1CCCN1C1CCCC1` (stereo not drawn) returned a melting point of 196 °C.

`CC1=NN(c2ccc(C(=O)O)cc2)C(=O)C1=CNc1ccccc1C(C)C` gave a melting point of 270 °C.

Regarding `CCOC(=O)c1c(C)nn(-c2ccccn2)c1N`, the melting point fell in the range of 80 to 81 °C.

Turning to `Cn1cccc1C(=O)NCCO`, the melting point worked out at 78.1 °C.

`O=c1[nH]nc(-c2ccc3ccccc3c2)o1` gave a melting point of 197 to 199 °C.

Turning to `CC(C)(C)CC(C)(C)c1cc(Cc2cc(C(C)(C)CC(C)(C)C)cc(-n3nc4ccccc4n3)c2O)c(O)c(-n2nc3ccccc3n2)c1`, the melting point turned out to be 198 °C.

As to `Cc1ccc2[nH]c(=O)c(C#N)c(Cl)c2c1`, the melting point stood at 264 °C.

Consider `Cc1ccc(NC(=O)NCc2cccc3c2CN(C2CCC(=O)NC2=O)C3=O)cc1Cl` (stereo not drawn), for which the melting point is > 260 °C.

`CCCCOc1c(CO)n(CC(C)(C)C)c(=O)c2cc(F)ccc12`: the melting point was in the range of 149 to 150 °C.

On to `O=c1c(-c2cccc(Cl)c2)coc2cc(O)c(O)cc12`, for which the melting point was 308 °C.
